In one series the test system is H28. Briefly: Anti-proliferation assay in H28 cells. The format is cell-based. The conditions noted are these: Homo sapiens, NCI-H28. How it is done:
(§1) Certain compounds were tested in TEAD reporter assay, and in H226 and H28. A: EC50<0.1 uM; B: 0.1 uM≤EC50≤0.5 uM; C: EC50>0.5 uM.
(§2) Individual cell lines were grown in medium according to supplier instructions and seeded into 96-well plates at a density that ensured logarithmic growth over 72 hours. TEAD inhibitor compounds were administered to cells at a top concentration of 10 μm and subsequently a 10 point 3-fold serial dilution was conducted. After 72 hours, proliferation was quantified using Cell TITERGLO™ (Promega, Inc.) and compared to vehicle control. IC50 and EC50 values were generated using XLFit curve fitting software.
The effect of isomer 2 of compound I-12 on cell proliferation is dependent on the presence of a Hippo/NF2 mutation. No effect is seen by isomer 2 of compound I-12 on the NF2 wild-type H28 cell line.

The subject of the next series is H226. Briefly: Anti-proliferation assay in H226 cells. The conditions noted are these: Homo sapiens, NCI-H226, H226 cells; read-out: H226 EC50. The format is cell-based, human. How it is done: as §1, §2
A short description of series [1]: Mouse pharmacokinetics study. The format is in vivo. The conditions noted are these: mouse, BALB/c mice, 10 mg/kg oral gavage, 5% DMS/95% PEG400, plasma. On the procedure: Formulated compounds were administered intravenously or orally via gavage to BALB/c mice. Typically, at 0.167, 0.5, 1, 2, 4, 6, 12, and 24 hours post-dose, blood was collected and processed to plasma by centrifugation and stored at −80° C. until analysis. Internal standard was added to each sample prior to protein precipitation with acetonitrile or TCA. The precipitates were filtered through a filter plate and the samples were analyzed by LC/MS/MS. A standard curve was prepared in plasma from typically from 1.0 ng/mL to 3000 ng/mL and processed in the same manner as the samples. Sample analysis was typically performed on a suitable LC/MS/MS system fitted with an analytical UPLC column and compounds eluted from the analytical column with a gradient from 30-95% 0.1% formic acid (v/v) in ACN: 0.1% formic acid (v/v) in water. Mass spectrometric detection of test compound and the internal standard was performed by […] in positive mode. The pharmacokinetics of each compound were analyzed by Phoenix WinNonlin software (Pharsight, St. Louis, Mo.) via noncompartmental analysis. FIG. 4 depicts pharmacokinetic (PK) properties of isomer 1 of compound I-186 following dosing in BALB/c mice.

The test system of the next series is TEAD. Briefly: TEAD reporter assay (Hippo Pathway TEAD Reporter - MCF7 cell line, luciferase). It counts as cell-based, human. The conditions noted are these: Homo sapiens, MCF7, TEAD Reporter - MCF7 cells; read-out: TEAD Reporter Assay EC50.
From the text: TEAD inhibition can be assayed using Hippo Pathway TEAD Reporter—MCF7 Cell Line (BPS Bioscience, Catalog #: 60618).
The TEAD Reporter—MCF7 cell line contains the firefly luciferase gene under the control of TEAD responsive elements stably integrated into the human breast cancer cell line, MCF7. Inside the cells, basal unphosphorylated YAP/TAZ remains in the nucleus and induces the constitutive expression of luciferase reporter. The cell line is validated for the inhibition of the expression of luciferase reporter by the activators of the Hippo pathway.
• 1) Harvest TEAD Reporter—MCF7 cells from culture in growth medium and seed cells at a density of 35,000 cells per well into white clear-bottom 96-well microplate in 45 μl of assay medium. • 2) Incubate cells at 37° C. in a CO2 incubator for overnight. • 3) Dilute the activators (H2O2 or okadaic acid) stock in assay medium. Add 5 μl of diluted activators to the wells. The final concentration of DMSO in assay medium is 0.1%. • 4) Add 5 μl of assay medium with same concentration of DMSO without activator to control wells. • 5) Add 50 μl of assay medium with DMSO to cell-free control wells (for determining background luminescence). • 6) Set up each treatment in at least triplicate. • 7) Incubate cells at 37° C. in a CO2 incubator for 5-6 hours. • 8) Perform luciferase assay using the ONE-Step™ Luciferase Assay System following the protocol provided: Add 100 μl of ONE-Step™ Luciferase reagent per well and rock at room temperature for ˜15 minutes. Measure luminescence using a luminometer. • 9) Data Analysis: Obtain the background-subtracted luminescence by subtracting the average background luminescence (cell-free control wells) from the luminescence reading of all wells.
as §1
Background: Reporter assays use an easily measured gene product as a stand-in for the process of interest.

pEC50: −log10 of the molar value. A value given as a limit tells only on which side of the number the result lay.

In general, pEC50 refers to the EC50 on a negative log10 scale, so that one unit is a factor of ten. One may read the AUC(0-t) as the area under the concentration-time curve up to a stated or last time point. A lower AUC(0-t) goes with less exposure. By Cmax is commonly meant the highest concentration seen after dosing. `C=CC(=O)NC1CCN(Cc2ccc(C(F)(F)F)cc2)CC1` [Compound I-46, N-[1-[[4-(Trifluoromethyl)phenyl]methyl]-4-piperidyl]prop-2-enamide]: the results for the negative-log EC50 (pEC50) in the series with H28, with H226 and with TEAD were under 6.30, 6.30 to 7.00 and 6.30 to 7.00, respectively. In addition, in series [1], the exposure AUC(0-t) was 1140 ng·h/mL. In addition, the highest concentration (Cmax) in series [1] (read-out: Cmax) worked out at 735 ng/mL.

These data come from patent US11458149B1, “TEAD inhibitors and uses thereof” (Ikena Oncology, Inc., priority 2019, dated 2022).
